# According to PMC2846521 (Journal of chemical information and modeling, 2009):
# System: phospholipase C
# Test: not given
# Conditions: cited from earlier work
row,Compound,Gβγ-dependent activation of phospholipase C
1,O=C(O)C1CCCCC1c1c2ccc(=O)c(O)c-2oc2c(O)c(O)ccc12 (centres unmarked) [compound 119910],inhibit

# System: not given
# Test: not given
# Conditions: mice; cited from earlier work
row,Compound,carrageenan-induced inflammation
1,O=C1OC2(c3ccccc31)c1ccc(O)c(O)c1Oc1c2ccc(O)c1O [gallein],lessen

# System: phosphoinositide 3-kinase γ (PI3K)
# Test: not given
# Conditions: cited from earlier work
row,Compound,Gβγ-dependent activation of phosphoinositide 3-kinase γ (PI3K)
1,O=C(O)C1CCCCC1c1c2ccc(=O)c(O)c-2oc2c(O)c(O)ccc12 (centres unmarked) [compound 119910],inhibit

# Molecular target: T1, Gβ1γ2 (Homo sapiens, UniProt P62873)
# Test: Competition ELISA with the high-affinity SIGK peptide
# Conditions: read-out: Median Inhibitory Concentration IC50 (binding inhibitors of SIGK); competition with SIGK peptide in ELISA
row,Compound,IC50 [µM]
1,C[N+]1(CC[N+]2(C)CCCC2c2cccnc2)CCCC1c1cccnc1 (centres unmarked) [compound 3284],262
2,CN(C)CS/C(N)=N/[C@H](O)C(Cl)(Cl)Cl [compound 14555],26
3,C[N+]1(CCN[N+]2(C)CCCCC2)CCc2ccccc2C1 (centres unmarked) [compound 17770],59.1
4,CCC(=O)OCN1C(=O)C=CC1=O [compound 19630],53.6
5,O=C(O)[C@@H]1[C@H](C(=O)O)[C@]2(Cl)C(Cl)=C(Cl)[C@@]1(Cl)C2(Cl)Cl [compound 22225],11.4
6,O=C1c2ccccc2C(=O)c2c(Nc3cc4c5c(ccc6c7ccc8c9c(cc(Nc%10cccc%11c%10C(=O)c%10ccccc%10C%11=O)c(c3c56)c97)-c3ccccc3C8=O)C(=O)c3ccccc3-4)cccc21 [compound 23128],27
7,CN(CCc1ccccn1)c1ccc2c(c1)C(=O)c1ccccc1-2 [compound 24048],292
8,Nc1ccc(S(=O)(=O)c2ccc(NCN3C(=O)NC(=O)C(=O)C3=O)cc2)cc1 [compound 34238],42
9,CC[N+](C)(CC)CCN1C(=O)c2ccccc2S1(=O)=O [compound 45126],69.7
10,O=C1C(Cl)=C(Nc2ccc(S(=O)(=O)Nc3ccccn3)cc2)C(=O)c2ccccc21 [compound 45382],35.4
11,COc1ccc(CC[N@+]2(C)COc3cc4oc(=O)cc(C)c4cc3C2)cc1OC [compound 59275],197
12,CN(C)C1C(=O)C(C(N)=O)=C(O)C2(O)C(=O)C3=C(O)c4c(O)cccc4C(C)(O)C3CC12 (centres unmarked) [compound 69343],16.8
13,Nc1cc(S(N)(=O)=O)ccc1SSc1ccc(S(N)(=O)=O)cc1N [compound 83217],56.9
14,NCCNC(=S)S [compound 83224],24.9
15,C[C@]12CC[C@H]3[C@@H](CCC4=CC(=O)CC[C@@]43C)[C@@H]1CC[C@@H]2C(=O)COS(=O)(=O)c1ccc(Br)cc1 [compound 88915],47.7
16,C[N+]1(CCC[N+]2(C)C[C@H]3[C@H](C2)[C@H]2C=C[C@@H]3CC2)CCOCC1 (some centres unmarked) [compound 90831],92.9
17,C[C@H]1CCCC2(CC[N+](C)(CCC[N+](C)(C)C)CC2)C1 (some centres unmarked) [compound 95676],182
18,Nc1c(S(=O)(=O)O)cc(Nc2cccc(S(N)(=O)=O)c2)c2c1C(=O)c1ccccc1C2=O [compound 117079],56
19,O=C(O)C1CCCCC1c1c2ccc(=O)c(O)c-2oc2c(O)c(O)ccc12 (centres unmarked) [compound 119910],0.2
20,CC1C2C=CC1C(c1c3ccc(=O)c(O)c-3oc3c(O)c(O)ccc13)C2C(=O)O (centres unmarked) [compound 119913],0.7
21,N=C(N)SCCN1CCCCC1 [compound 121771],198
22,O=C(c1ccc([N+](=O)[O-])cc1)C(Br)C(Br)c1ccnc2ccccc12 (centres unmarked) [compound 150289],42.5

# The remaining lines, values ahead:
row,IC50 [µM],Compound
1,24,O=C1c2ccccc2C(=O)c2c(NC3CCCCC3)ccc(Nc3ccc(S(=O)(=O)O)cc3)c21 [compound 128437]
2,18,Nc1ccc(-c2ccc(Nc3cc(S(=O)(=O)O)c(N)c4c3C(=O)c3ccccc3C4=O)cc2)c(S(=O)(=O)O)c1 [compound 125910]
3,16.5,O=C1c2ccccc2C(=O)c2c1ccc(C(=O)O)c2-c1ccc2ccccc2c1 [compound 9608]
4,10.7,CN1C[C@H](c2ccccc2)C(O)([C@]2(c3ccccc3)CN(C)C[C@@H](c3ccccc3)C2=O)[C@H](c2ccccc2)C1 (some centres unmarked) [compound 39207]
5,8.1,N=C1C(O)C2(I)c3ccccc3N3C(=N)C(O)C4c5ccccc5N1C4C32 (centres unmarked) [compound 118176]
6,7.1,Cc1cc(O)c(-c2cc(O)c(C)cc2O)cc1O [compound 2805]
7,5.9,Cc1ccc(S(=O)(=O)OC2C(C3COC(C)(C)O3)OC3OC(C)(C)OC32)cc1 (centres unmarked) [compound 14163]
8,4.3,O=C(O)c1c(Br)c(Br)c(Br)c(Br)c1C1c2ccc(O)cc2Oc2cc(O)ccc21 [compound 119889]
9,2.4,O=C1c2cc([N+](=O)[O-])ccc2-c2ccc3c4ccc5c6c(ccc(c7ccc1c2c73)c64)C(=O)c1cc([N+](=O)[O-])ccc1-5 [compound 51535]
10,0.2,O=C(O)/C=C/c1c2ccc(=O)c(O)c-2oc2c(O)c(O)ccc12 [compound 119911]

# Molecular target: T1, Gβ1γ2
# Test: not given
# Conditions: surface plasmon resonance; cited from earlier work
row,Compound,Kd [µM]
1,O=C1OC2(c3ccccc31)c1ccc(O)c(O)c1Oc1c2ccc(O)c1O [gallein],~0.4

# System: PI3K
# Test: not given
# Conditions: cited from earlier work
row,Compound,PI3K activation
1,O=C1OC2(c3ccccc31)c1ccc(O)c(O)c1Oc1c2ccc(O)c1O [gallein],inhibit

# System: neutrophil
# Test: not given
# Conditions: cited from earlier work
row,Compound,chemoattractant-dependent neutrophil migration
1,O=C1OC2(c3ccccc31)c1ccc(O)c(O)c1Oc1c2ccc(O)c1O [gallein],inhibit
